Source: US4469848A, “Deodorant product for surface treatment” (priority 1978, dated 1984)

Tested on: not listed separately
Test: Morpholine test: depression of partial vapour pressure of morpholine relative to Raoult's Law (headspace GC)
Conditions: material 1 g + morpholine 0.25 g, 37° C., 30 minutes

| Molecule | Raoult variance ratio (RVR) |
| --- | --- |
| CCCCCCCC1CCCC1=O (stereo not drawn) [2-n-heptylcyclopentanone] | 1.05 |
| CC1(C)CCCC2(C)C1CCC1(C)OCCC12 (stereo not drawn) [3a-Methyl-dodecahydro-6,6,9a-trimethylnaphtho(2,1-b)furan] | 1.30 |
| O=C(OCc1ccccc1)c1ccccc1O [Benzyl salicylate] | 1.58 |
| Cc1ccc(C(C)C)cc1O [Carvacrol] | 1.43 |
| O=c1ccc2ccccc2o1 [Coumarin] | 1.22 |
| CCOC(=O)c1ccccc1C(=O)OCC [Diethyl phthalate] | 1.20 |
| CCOc1cc(C=O)ccc1O [Ethyl vanillin] | 1.43 |
| CCCCCCC(CCOC(C)=O)OC(C)=O (stereo not drawn) [Nonanediol-1,3-diacetate] | 1.17 |
| CCCCCC1CCC(=O)O1 (stereo not drawn) [Nonanolide-1:4] | 0.87 |
| OCCc1ccccc1 [Phenylether alcohol] | 1.24 |
| CC(C)CCOC(=O)c1ccccc1O [iso-Amyl salicylate] | 1.24 |
| C/C=C\c1ccc(O)c(OC)c1 [iso-Eugenol] | 1.48 |
| CC(=O)OC1CCCCC1C(C)(C)C (stereo not drawn) [o-t-Butylcyclohexyl acetate] | 1.08 |
| CCC(C)(C)C1CCC(=O)CC1 [p-t-Amyl cyclohexanone] | 1.10 |
| CC(=O)OC1CCC(C(C)(C)C)CC1 (stereo not drawn) [p-t-Butylcyclohexyl acetate] | 0.98 |
| CC(=O)c1ccc2ccccc2c1 [β-Methyl naphthyl ketone] | 0.96 |
| Dimyrcetol | 1.22 |
| Tetrahydromuguol | 1.23 |
| i-Nonyl acetate | 0.83 |
| i-Nonyl formate | 1.49 |

Biological target: T1, lipoxidase (ECl.13.1.13) (Glycine max, UniProt P08170)
T1 sequence (P08170 1-839): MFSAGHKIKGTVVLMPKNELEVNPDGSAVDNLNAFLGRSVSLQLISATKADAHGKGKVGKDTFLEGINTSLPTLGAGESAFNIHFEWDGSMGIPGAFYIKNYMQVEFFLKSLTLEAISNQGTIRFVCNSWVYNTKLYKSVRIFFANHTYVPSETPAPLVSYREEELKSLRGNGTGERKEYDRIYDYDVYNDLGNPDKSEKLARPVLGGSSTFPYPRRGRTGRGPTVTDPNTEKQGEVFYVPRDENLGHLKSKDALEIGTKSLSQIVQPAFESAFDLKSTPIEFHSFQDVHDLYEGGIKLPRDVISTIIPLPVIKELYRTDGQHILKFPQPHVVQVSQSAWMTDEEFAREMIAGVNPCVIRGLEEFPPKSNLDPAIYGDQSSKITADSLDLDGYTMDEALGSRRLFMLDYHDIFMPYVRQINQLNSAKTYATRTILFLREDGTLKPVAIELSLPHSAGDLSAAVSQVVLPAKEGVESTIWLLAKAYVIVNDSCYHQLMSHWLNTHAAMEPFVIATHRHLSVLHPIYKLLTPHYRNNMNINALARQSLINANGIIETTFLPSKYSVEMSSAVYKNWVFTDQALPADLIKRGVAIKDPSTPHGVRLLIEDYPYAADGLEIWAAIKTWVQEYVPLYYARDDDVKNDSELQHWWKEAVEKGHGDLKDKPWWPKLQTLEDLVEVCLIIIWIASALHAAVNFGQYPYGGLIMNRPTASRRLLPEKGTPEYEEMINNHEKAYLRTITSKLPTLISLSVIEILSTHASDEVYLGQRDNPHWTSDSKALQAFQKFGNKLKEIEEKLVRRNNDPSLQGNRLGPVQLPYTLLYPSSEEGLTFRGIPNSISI
Test: Lipoxidase test: inhibition of lipoxidase-catalysed oxidation of linoleic acid to hydroperoxide (234 nm)
Type: biochemical
Conditions: 0.5% by weight solution of material in ethanol as test substrate solvent; pH 9.0 borate buffer

| Molecule | lipoxidase inhibiting capacity (LIC), % inhibition |
| --- | --- |
| Dimyrcetol | 16% |
| Tetrahydromuguol | 24% |
| i-Nonyl acetate | 50% |
| i-Nonyl formate | 19% |
